The results in this text go back to ChEMBL document CHEMBL3352545, “Two new unusual monoterpene acid glycosides from Acacia cyclops with potential cytotoxic activity” (2014).

One experiment has as its system OVCAR. Kind of experiment: Growth inhibition of human OVCAR cells at 50 ug/mL by MTT assay. It counts as functional. The conditions noted are these: read-out: GI.
Another experiment relates to MCF7. Put plainly: Growth inhibition of human MCF7 cells at 50 ug/mL by MTT assay. It counts as functional. To be noted: read-out: GI.

Regarding `C=CC(C)(CC/C=C(\C)C(=O)O)O[C@@H]1O[C@H](CO)[C@@H](OC(C)(C=C)CC/C=C(/C)C(=O)O)[C@H](O)[C@H]1O` (some centres undefined), the inhibition of growth at 50 µg/mL in the experiment on OVCAR worked out at 77.7%; in the experiment on MCF7, 98.9%.

On to `C=CC(C)(CC/C=C(\C)C(=O)O)O[C@@H]1O[C@@H](C)[C@H](OC(C)(C=C)CC/C=C(\C)C(=O)O)[C@@H](O)[C@H]1O` (some centres undefined), for which the inhibition of growth at 50 µg/mL was 66.5% with OVCAR and 68.2% in the experiment with MCF7.
